Experimental data taken from patent US20240345095A1, “AN ASSAY FOR DETERMINING GASTROINTESTINAL PERMEABILITY BY DETERMINING A RATIO OF THE CONCENTRATION OF LACTULOSE TO THE CONCENTRATION OF GALACTOSE IN THE BLOOD SAMPLE” (TriviumVet Designated Activity Company, priority 2021, published 2024).
Values belong to the compound of their own block, whether it stands above or below them.

Tests used:
[1] = Plasma absorption time course of lactulose and galactose after oral administration (findings stated in the summary); type: in vivo
[2] = target: H-2 receptors on the parietal cell (Homo sapiens, UniProt P25021); conditions: human subjects, administered intravenously; cited from earlier work
Chain of H-2 receptors on the parietal cell (P25021 whole entry): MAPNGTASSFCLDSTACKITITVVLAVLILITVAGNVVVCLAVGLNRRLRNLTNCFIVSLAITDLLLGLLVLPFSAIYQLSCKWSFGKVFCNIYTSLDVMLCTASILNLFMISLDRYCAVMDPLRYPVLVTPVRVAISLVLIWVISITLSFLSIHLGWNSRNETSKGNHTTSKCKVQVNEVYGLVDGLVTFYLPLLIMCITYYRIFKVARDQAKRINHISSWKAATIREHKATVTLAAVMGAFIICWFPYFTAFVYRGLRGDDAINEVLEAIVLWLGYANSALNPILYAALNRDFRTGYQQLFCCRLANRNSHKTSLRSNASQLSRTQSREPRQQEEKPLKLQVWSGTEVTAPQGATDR

[3] = tested on: gastric ulcers; conditions: foals, ulcers associated with intravenous administration of high-dose NSAIDs; cited from earlier work

Time after which the rate of lactulose absorption slows ([1]; after oral administration): approximately 60 minutes
Period over which lactulose absorption occurs ([1]; health and disease states, after oral administration): up to 3 hours
Compound: OC[C@H]1O[C@@H](O[C@@H]2[C@@H](CO)OC(O)(CO)[C@H]2O)[C@H](O)[C@@H](O)[C@H]1O (mixture of isomers) [Lactulose, lactulose]

Compound: NC(N)=Nc1nc(CSCCC(N)=NS(N)(=O)=O)cs1 [famotidine]
Time to pharmacological tolerance [2]: 12-72 hours

Time at which galactose absorption peaks ([1]; after oral administration): ≤ 15 min
Time galactose remains present in plasma at measurable micromolar concentrations ([1]; after oral administration, majority of individuals tested): approximately 60 minutes
Time to peak plasma concentrations of galactose ([1]; galactose concentrations below 2% in the oral solution): ≤ 5 min
Compound: O=C[C@H](O)[C@@H](O)[C@@H](O)[C@H](O)CO [galactose]

Compound: sucralfate
Effect on gastric ulcers [3]: protective effect
